Experimental data reported in ChEMBL document CHEMBL4602617, “Discovery and optimization of heteroaryl piperazines as potent and selective PI3Kδ inhibitors” (Bioorg Med Chem Lett, 2020).

Experiments:
[1] = biological target: Kappa-type opioid receptor (Homo sapiens) (UniProt P41145); assay: Displacement of [3H]diprenorphine from full length human recombinant KOP receptor expressed in HEK293 cells at 10 uM measured after 60 mins by radiometric scintillation analysis relative to control; format: cell-based
[2] = biological target: Tyrosine-protein kinase ABL2 (Homo sapiens, UniProt P42684); assay: Inhibition of recombinant full length human C-terminal His-tagged ABL2F cytoplasmic domain expressed in baculovirus expression system using tyrosine-2 peptide as substrate incubated for 60 mins in presence of ATP by Z'-LYTE assay
[3] = biological target: Serine/threonine-protein kinase TAO2 (Homo sapiens, UniProt Q9UL54); assay: Inhibition of recombinant human GST-tagged TAO2 catalytic domain (1 to 314 residues) expressed in baculovirus expression system using serine/threonine-7 peptide as substrate incubated for 60 mins in presence of ATP by Z'-LYTE assay
[4] = biological target: Serine/threonine-protein kinase N1 (Homo sapiens, UniProt Q16512); assay: Inhibition of recombinant full length GST-tagged human PKN1 expressed in baculovirus expression system using Ser/Thr 07 as substrate in presence of ATP after 1 hr by Z'-LYTE assay
[5] = biological target: Rho-associated protein kinase 2 (Homo sapiens, UniProt O75116); assay: Inhibition of recombinant human GST-tagged ROCK2 catalytic domain expressed in baculovirus expression system using serine/threonine-13 peptide as substrate incubated for 60 mins in presence of ATP by Z'-LYTE assay
[6] = biological target: Casein kinase II subunit alpha (Homo sapiens, UniProt P68400); assay: Inhibition of recombinant human full-length His-tagged CSNK2A1 expressed in baculovirus expression system using FRET-labeled Ser/Thr 11 peptide as substrate measured after 1 hr in presence of ATP by Z'-lyte assay
[7] = biological target: Serine/threonine-protein kinase PAK 4 (Homo sapiens, UniProt O96013); assay: Inhibition of recombinant human GST-tagged PAK4 catalytic domain (295 to 591 residues) expressed in baculovirus expression system using serine/threonine-20 peptide as substrate incubated for 60 mins in presence of ATP by Z'-LYTE assay
[8] = test system: Atrial natriuretic peptide receptor 1 (Cavia porcellus); assay: Inhibition of guniea pig ANF at 10 uM relative to control
[9] = biological target: Dual specificity mitogen-activated protein kinase kinase 2 (Homo sapiens, UniProt P36507); assay: Inhibition of recombinant full length human His-tagged MEK2 expressed in baculovirus expression system using serine/threonine-3 peptide as substrate incubated for 60 mins in presence of ATP by Z'-LYTE assay
Caspase-8 (Homo sapiens) = Caspase-8 (Homo sapiens) (UniProt Q14790); assay: Inhibition of recombinant human caspase 8 (217 to end residues) expressed in Escherichia coli at 10 uM using Ac-IETD-AMC as substrate after 60 mins by spectrophotometric analysis relative to control
[10] = biological target: Serine/threonine-protein kinase 4 (Homo sapiens, UniProt Q13043); assay: Inhibition of recombinant full length human GST-tagged MST1 expressed in baculovirus expression system using serine/threonine-7 peptide as substrate incubated for 60 mins in presence of ATP by Z'-LYTE assay
[11] = biological target: Alpha-1B adrenergic receptor (Rattus norvegicus) (UniProt P15823); assay: Displacement of [3H]prazosin from alpha1b adrenergic receptor in Wistar rat liver membranes at 10 uM measured after 60 mins by scintillation counting method relative to control; format: cell membranes; details: Membrane
[12] = Clearance in rat plasma at 0.5 mg/kg, iv or 1 mg/kg, po; format: ADME, organism-based
[13] = biological target: Homeodomain-interacting protein kinase 4 (Homo sapiens, UniProt Q8NE63); assay: Inhibition of recombinant full length human N-terminal GST-tagged HIPK4 expressed in baculovirus expression system using serine/threonine-18 peptide as substrate incubated for 60 mins in presence of ATP by Z'-LYTE assay
[14] = biological target: C-X-C chemokine receptor type 2 (Homo sapiens) (UniProt P25025); assay: Displacement of [125I]IL-8 from recombinant full length human CXCR2 receptor expressed in CHOK1 cells at 10 uM measured after 60 mins by radiometric scintillation analysis relative to control; format: cell-based; details: CHO-K1
[15] = biological target: 5-hydroxytryptamine receptor 3A (Homo sapiens) (UniProt P46098); assay: Displacement of [3H]GR-65630 from full length human recombinant 5HT3 receptor expressed in HEK293 cells at 10 uM measured after 60 mins by radiometric scintillation analysis relative to control; format: cell-based
[16] = biological target: Dual specificity tyrosine-phosphorylation-regulated kinase 4 (Homo sapiens, UniProt Q9NR20); assay: Inhibition of recombinant full length human GST-tagged DYRK4 expressed in baculovirus expression system using serine/threonine-9 peptide as substrate incubated for 60 mins in presence of ATP by Z'-LYTE assay
[17] = biological target: Macrophage-stimulating protein receptor (Homo sapiens, UniProt Q04912); assay: Inhibition of recombinant human GST-tagged RON catalytic domain (983 to 1400 residues) expressed in baculovirus expression system using tyrosine-6 peptide as substrate incubated for 60 mins in presence of ATP by Z'-LYTE assay
[18] = biological target: Serine/threonine-protein kinase PAK 1 (Homo sapiens, UniProt Q13153); assay: Inhibition of recombinant full length human GST-tagged PAK1 expressed in baculovirus expression system using serine/threonine-19 peptide as substrate incubated for 60 mins in presence of ATP by Z'-LYTE assay
[19] = biological target: Mitogen-activated protein kinase 9 (Homo sapiens, UniProt P45984); assay: Inhibition of recombinant full length human His-tagged JNK2 expressed in baculovirus expression system using serine/threonine-4 peptide as substrate incubated for 60 mins in presence of ATP by Z'-LYTE assay
[20] = biological target: Tyrosine-protein kinase Fes/Fps (Homo sapiens, UniProt P07332); assay: Inhibition of recombinant His-tagged full length human FES expressed in baculovirus expression system using Tyr 01 peptide as substrate after 1 hr by Z'-LYTE assay
[21] = biological target: Cyclin-dependent kinase 1/cyclin B1 (Homo sapiens, UniProt P06493); assay: Inhibition of recombinant full length human His-tagged CDK1/CyclinB expressed in baculovirus expression system using serine/threonine-18 peptide as substrate incubated for 60 mins in presence of ATP by Z'-LYTE assay
[22] = biological target: D(2) dopamine receptor (Homo sapiens) (UniProt P14416); assay: Displacement of [3H]spiperone from recombinant full length human recombinant D2S receptor expressed in CHO cells at 10 uM measured after 120 mins by radiometric scintillation analysis relative to control; format: cell-based
[23] = biological target: 5-hydroxytryptamine receptor 1A (Homo sapiens) (UniProt P08908); assay: Displacement of [3H]-8-OH-DPAT from full length human recombinant 5HT1A receptor expressed in CHOK-1 cells at 10 uM measured after 60 mins by radiometric scintillation analysis relative to control; format: cell-based
[24] = biological target: Serine/threonine-protein kinase Nek1 (Homo sapiens, UniProt Q96PY6); assay: Inhibition of recombinant human GST-tagged NEK1 catalytic domain (1 to 505 residues) expressed in baculovirus expression system using serine/threonine-7 peptide as substrate incubated for 60 mins in presence of ATP by Z'-LYTE assay
Sequence of Serine/threonine-protein kinase Nek1 (Q96PY6 whole entry, the tested form may be a part): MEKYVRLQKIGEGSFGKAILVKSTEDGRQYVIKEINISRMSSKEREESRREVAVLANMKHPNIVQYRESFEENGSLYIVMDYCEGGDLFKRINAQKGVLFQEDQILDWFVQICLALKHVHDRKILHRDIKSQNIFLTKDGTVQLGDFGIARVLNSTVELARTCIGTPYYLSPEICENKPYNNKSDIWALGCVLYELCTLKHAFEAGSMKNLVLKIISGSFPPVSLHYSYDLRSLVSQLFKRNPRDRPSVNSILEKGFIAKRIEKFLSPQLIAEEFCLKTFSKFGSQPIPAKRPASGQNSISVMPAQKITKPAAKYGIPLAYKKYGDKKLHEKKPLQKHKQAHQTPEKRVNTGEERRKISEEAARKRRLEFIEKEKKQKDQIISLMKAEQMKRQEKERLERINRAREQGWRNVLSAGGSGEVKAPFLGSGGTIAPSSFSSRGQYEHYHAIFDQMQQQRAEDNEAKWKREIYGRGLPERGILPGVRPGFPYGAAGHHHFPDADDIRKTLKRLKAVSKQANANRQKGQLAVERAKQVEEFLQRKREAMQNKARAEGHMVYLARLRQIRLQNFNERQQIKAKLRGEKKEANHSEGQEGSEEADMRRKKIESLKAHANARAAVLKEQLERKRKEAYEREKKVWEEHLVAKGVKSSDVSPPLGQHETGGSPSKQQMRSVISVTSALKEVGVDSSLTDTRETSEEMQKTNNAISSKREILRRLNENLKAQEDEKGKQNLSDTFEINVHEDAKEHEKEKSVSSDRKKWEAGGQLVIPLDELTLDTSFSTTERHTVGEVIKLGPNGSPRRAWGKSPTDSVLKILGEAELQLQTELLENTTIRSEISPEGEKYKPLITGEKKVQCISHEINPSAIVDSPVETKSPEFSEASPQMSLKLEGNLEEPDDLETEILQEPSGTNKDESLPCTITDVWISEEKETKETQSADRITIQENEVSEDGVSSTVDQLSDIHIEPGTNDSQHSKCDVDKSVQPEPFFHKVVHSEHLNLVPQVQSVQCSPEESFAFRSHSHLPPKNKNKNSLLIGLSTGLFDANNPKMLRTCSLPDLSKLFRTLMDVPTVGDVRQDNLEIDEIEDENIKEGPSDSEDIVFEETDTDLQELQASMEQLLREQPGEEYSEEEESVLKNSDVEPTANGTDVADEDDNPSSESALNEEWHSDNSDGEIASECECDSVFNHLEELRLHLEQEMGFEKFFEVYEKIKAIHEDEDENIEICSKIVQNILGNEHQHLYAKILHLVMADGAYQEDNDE

Sequence of Homeodomain-interacting protein kinase 4 (Q8NE63 whole entry): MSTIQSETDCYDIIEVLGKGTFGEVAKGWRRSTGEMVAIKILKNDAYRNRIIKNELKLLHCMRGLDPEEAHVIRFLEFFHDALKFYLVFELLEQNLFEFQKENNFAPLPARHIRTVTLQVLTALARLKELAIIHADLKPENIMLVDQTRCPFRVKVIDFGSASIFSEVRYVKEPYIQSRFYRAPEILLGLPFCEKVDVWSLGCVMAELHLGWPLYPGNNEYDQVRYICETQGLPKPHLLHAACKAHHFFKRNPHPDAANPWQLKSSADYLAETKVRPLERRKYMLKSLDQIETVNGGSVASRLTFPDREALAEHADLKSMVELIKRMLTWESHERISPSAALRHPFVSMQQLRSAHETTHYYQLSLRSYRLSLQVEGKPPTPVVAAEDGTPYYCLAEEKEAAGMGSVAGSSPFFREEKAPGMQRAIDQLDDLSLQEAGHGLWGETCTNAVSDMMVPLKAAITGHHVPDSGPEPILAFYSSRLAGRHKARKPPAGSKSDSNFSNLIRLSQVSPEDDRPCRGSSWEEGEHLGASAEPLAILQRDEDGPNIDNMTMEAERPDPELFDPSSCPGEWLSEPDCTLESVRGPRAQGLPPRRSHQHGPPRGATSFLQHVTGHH
Sequence of Caspase-8 (Homo sapiens) (Q14790 217-374 limits assumed): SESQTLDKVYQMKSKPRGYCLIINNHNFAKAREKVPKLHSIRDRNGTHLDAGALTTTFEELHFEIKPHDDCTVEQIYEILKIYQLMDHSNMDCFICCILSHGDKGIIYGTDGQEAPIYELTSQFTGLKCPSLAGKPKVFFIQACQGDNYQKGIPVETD
Sequence of Caspase-8 (Homo sapiens) (Q14790 385-479 limits assumed): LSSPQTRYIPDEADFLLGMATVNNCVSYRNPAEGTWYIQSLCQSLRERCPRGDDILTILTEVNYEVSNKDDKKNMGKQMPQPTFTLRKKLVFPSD
Sequence of Serine/threonine-protein kinase PAK 4 (O96013 whole entry, the tested form may be a part): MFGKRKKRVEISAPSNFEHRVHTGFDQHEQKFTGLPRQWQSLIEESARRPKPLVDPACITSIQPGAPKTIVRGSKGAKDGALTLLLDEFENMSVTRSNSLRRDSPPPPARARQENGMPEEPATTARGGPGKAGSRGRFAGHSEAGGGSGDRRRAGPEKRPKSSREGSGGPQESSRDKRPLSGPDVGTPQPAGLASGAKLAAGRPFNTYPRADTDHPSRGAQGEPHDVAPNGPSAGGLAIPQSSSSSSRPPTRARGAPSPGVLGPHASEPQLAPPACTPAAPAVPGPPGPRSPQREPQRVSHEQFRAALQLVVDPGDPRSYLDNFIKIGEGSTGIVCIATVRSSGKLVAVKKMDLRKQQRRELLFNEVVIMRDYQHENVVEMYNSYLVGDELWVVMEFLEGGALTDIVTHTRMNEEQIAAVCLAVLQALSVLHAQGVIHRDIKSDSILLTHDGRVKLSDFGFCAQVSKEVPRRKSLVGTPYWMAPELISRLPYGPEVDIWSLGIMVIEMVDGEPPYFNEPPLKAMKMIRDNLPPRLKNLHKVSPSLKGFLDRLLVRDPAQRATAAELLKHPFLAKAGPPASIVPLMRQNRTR
Sequence of Serine/threonine-protein kinase 4 (Q13043 whole entry): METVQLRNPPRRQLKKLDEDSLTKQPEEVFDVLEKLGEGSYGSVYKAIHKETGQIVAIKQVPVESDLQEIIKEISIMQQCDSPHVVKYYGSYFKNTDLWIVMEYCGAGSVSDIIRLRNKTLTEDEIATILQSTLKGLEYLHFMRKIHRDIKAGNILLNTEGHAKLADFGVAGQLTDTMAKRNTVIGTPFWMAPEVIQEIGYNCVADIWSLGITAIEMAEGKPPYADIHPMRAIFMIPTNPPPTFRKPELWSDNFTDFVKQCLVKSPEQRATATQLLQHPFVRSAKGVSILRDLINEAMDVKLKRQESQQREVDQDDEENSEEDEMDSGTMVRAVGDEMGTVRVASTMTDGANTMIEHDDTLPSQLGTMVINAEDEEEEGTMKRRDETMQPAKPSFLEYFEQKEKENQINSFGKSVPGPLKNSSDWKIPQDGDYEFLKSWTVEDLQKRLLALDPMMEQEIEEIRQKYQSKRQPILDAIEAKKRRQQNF
Sequence of Alpha-1B adrenergic receptor (Rattus norvegicus) (P15823 whole entry): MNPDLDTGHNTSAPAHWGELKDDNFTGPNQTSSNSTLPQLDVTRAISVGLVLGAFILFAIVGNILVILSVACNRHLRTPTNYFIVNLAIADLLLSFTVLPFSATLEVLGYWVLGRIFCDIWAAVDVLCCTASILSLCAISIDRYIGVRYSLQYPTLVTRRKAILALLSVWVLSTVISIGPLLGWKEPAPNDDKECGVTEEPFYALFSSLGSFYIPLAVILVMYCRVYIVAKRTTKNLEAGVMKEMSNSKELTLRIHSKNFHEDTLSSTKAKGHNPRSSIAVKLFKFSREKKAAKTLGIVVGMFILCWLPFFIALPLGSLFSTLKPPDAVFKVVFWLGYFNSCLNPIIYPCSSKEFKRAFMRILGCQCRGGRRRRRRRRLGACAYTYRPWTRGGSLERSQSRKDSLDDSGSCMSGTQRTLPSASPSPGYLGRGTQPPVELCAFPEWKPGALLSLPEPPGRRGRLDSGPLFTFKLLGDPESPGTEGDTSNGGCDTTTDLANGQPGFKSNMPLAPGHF
Sequence of Serine/threonine-protein kinase PAK 1 (Q13153 whole entry): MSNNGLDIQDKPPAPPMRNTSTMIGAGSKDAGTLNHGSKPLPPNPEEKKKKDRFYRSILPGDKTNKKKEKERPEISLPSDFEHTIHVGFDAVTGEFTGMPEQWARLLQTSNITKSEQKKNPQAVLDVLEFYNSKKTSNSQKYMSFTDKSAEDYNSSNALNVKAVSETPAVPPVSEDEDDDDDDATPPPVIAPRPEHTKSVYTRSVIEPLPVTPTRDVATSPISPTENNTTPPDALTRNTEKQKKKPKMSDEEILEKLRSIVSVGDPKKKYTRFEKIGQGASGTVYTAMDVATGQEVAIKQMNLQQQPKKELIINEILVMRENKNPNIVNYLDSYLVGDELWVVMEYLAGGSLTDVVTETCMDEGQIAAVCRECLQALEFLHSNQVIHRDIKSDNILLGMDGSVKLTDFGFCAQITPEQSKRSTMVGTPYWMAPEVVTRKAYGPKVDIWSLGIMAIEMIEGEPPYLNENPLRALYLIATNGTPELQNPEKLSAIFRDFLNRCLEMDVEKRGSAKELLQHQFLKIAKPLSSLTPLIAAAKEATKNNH
Sequence of Cyclin-dependent kinase 1/cyclin B1 (P06493 whole entry): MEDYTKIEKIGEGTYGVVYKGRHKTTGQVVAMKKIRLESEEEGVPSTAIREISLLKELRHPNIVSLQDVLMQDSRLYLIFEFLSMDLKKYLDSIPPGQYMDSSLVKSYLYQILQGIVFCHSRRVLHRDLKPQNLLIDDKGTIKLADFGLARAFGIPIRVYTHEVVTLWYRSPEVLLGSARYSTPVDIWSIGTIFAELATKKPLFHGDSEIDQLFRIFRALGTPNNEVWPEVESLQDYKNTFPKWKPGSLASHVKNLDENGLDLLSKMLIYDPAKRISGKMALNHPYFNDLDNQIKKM
Sequence of Cyclin-dependent kinase 1/cyclin B1 (P14635 whole entry, further chain): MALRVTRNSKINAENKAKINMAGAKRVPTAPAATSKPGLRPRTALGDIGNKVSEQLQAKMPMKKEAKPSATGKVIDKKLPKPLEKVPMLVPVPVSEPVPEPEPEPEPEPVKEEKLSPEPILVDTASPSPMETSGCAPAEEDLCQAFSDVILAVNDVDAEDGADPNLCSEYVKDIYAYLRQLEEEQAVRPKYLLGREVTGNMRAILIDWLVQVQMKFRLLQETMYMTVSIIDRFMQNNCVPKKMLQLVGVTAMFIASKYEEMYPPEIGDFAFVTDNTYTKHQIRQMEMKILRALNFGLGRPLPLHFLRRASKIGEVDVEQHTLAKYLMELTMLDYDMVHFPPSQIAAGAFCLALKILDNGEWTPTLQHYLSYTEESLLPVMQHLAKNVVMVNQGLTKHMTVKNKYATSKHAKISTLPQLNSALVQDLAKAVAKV

C[C@@H]1C[C@H]1C(=O)N1CCN(c2cnc(C#N)c(-c3cnn(C)c3)n2)C[C@H]1C
0%: inhibition [22]
5%: inhibition [1] | inhibition [14]
8%: inhibition [8]
2%: inhibition (Caspase-8 (Homo sapiens))
9%: inhibition [15] | inhibition [23]
28.5 mL/min/kg: clearance [12]
> 100 µM: IC50 [2] | IC50 [3] | IC50 [4] | IC50 [5] | IC50 [6] | IC50 [7] | IC50 [9] | IC50 [10] | IC50 [13] | IC50 [16] | IC50 [17] | IC50 [18] | IC50 [19] | IC50 [20] | IC50 [21] | IC50 [24]
-1%: inhibition [11]
